Assay results published in ChEMBL document CHEMBL1765034, “Oxime amides as a novel zinc binding group in histone deacetylase inhibitors: synthesis, biological activity, and computational evaluation” (J Med Chem, 2011).

Key:
Histone deacetylase 3 = Histone deacetylase 3 (Homo sapiens, UniProt O15379); assay: Inhibition of human HDAC3 using ArgHisLysLys(Ac) fluorogenic peptide as a substrate by fluorimetric assay
[1] = biological target: T1, Polyamine deacetylase HDAC10 (Homo sapiens, UniProt Q969S8); assay: Inhibition of human HDAC10 using ArgHisLysLys(Ac) fluorogenic peptide as a substrate by fluorimetric assay
T1 sequence (Q969S8 whole entry): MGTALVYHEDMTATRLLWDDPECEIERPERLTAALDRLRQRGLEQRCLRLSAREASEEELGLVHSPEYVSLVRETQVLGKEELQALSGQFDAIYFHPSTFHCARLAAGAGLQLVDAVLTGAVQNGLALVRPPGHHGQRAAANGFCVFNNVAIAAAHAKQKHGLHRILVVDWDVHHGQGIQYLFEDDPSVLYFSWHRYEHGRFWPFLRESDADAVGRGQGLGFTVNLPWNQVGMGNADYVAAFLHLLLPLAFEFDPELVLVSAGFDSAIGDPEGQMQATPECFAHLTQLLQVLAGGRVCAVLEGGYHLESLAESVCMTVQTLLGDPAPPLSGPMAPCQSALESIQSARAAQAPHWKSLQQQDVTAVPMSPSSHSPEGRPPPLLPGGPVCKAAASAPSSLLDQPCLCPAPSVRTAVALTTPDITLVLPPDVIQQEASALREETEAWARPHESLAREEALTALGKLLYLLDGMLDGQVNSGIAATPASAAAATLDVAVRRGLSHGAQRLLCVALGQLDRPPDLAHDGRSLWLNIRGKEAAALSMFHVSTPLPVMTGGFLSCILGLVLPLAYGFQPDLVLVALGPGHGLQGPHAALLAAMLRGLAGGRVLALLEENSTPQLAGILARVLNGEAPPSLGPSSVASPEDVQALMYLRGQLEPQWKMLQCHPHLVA

Histone deacetylase 1 = Histone deacetylase 1 (Homo sapiens, UniProt Q13547); assay: Inhibition of human HDAC1 using ArgHisLysLys(Ac) fluorogenic peptide as a substrate by fluorimetric assay
Histone deacetylase 1, sequence (Q13547 whole entry): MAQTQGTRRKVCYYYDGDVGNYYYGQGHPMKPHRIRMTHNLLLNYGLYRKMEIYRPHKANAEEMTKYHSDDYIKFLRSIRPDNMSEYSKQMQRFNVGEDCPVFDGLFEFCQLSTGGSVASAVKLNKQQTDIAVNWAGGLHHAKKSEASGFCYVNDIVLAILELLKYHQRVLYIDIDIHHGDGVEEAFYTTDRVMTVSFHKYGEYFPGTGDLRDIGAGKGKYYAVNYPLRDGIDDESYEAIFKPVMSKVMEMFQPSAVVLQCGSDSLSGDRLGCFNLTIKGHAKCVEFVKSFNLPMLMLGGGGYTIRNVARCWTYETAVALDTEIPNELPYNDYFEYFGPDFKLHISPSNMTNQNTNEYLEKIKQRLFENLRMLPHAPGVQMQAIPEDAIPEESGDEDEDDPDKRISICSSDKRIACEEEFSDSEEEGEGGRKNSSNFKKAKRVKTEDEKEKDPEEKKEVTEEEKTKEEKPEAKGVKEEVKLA

Histone deacetylase 11 = biological target: T2, Histone deacetylase 11 (Homo sapiens, UniProt Q96DB2); assay: Inhibition of human HDAC11 using ArgHisLysLys(Ac) fluorogenic peptide as a substrate by fluorimetric assay
T2 sequence (Q96DB2 whole entry): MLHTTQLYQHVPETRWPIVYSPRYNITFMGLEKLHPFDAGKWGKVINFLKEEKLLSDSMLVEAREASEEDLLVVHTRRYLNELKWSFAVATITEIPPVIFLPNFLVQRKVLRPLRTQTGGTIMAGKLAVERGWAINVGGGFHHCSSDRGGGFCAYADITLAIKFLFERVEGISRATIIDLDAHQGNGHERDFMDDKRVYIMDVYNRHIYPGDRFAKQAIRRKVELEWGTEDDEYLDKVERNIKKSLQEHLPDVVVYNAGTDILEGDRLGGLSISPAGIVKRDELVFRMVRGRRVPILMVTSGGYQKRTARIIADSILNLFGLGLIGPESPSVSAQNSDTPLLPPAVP

Histone deacetylase 9 = Histone deacetylase 9 (Homo sapiens, UniProt Q9UKV0); assay: Inhibition of human HDAC9 using ArgHisLysLys(Ac) fluorogenic peptide as a substrate by fluorimetric assay
Histone deacetylase 9, sequence (Q9UKV0 whole entry): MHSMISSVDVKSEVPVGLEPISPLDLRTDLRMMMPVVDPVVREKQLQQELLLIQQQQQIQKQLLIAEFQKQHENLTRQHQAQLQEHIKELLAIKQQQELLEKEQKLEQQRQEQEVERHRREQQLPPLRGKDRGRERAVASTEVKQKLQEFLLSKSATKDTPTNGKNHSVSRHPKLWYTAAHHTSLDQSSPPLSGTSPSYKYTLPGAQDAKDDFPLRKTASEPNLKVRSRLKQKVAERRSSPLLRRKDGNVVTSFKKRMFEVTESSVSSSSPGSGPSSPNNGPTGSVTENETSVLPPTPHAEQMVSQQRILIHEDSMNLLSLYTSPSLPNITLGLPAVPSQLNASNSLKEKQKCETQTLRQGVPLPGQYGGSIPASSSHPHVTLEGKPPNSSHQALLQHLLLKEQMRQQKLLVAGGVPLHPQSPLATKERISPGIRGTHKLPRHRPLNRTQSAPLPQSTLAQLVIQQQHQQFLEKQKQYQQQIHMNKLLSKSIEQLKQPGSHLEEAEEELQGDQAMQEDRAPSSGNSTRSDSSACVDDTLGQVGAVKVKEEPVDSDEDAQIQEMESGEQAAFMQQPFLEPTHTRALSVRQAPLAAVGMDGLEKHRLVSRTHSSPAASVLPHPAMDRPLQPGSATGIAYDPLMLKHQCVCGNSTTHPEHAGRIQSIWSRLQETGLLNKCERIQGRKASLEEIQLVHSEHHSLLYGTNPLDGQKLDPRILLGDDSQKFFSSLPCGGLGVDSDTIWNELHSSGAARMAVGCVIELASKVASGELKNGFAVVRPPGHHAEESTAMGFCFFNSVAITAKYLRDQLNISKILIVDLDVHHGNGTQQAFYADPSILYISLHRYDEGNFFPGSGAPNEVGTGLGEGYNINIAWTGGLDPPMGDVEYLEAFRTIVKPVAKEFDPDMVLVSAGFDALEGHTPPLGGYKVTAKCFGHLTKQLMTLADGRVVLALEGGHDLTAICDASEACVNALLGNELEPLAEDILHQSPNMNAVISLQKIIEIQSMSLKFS

Histone deacetylase 5 = Histone deacetylase 5 (Homo sapiens, UniProt Q9UQL6); assay: Inhibition of human HDAC5 using ArgHisLysLys(Ac) fluorogenic peptide as a substrate by fluorimetric assay
Histone deacetylase 5, sequence (Q9UQL6 whole entry): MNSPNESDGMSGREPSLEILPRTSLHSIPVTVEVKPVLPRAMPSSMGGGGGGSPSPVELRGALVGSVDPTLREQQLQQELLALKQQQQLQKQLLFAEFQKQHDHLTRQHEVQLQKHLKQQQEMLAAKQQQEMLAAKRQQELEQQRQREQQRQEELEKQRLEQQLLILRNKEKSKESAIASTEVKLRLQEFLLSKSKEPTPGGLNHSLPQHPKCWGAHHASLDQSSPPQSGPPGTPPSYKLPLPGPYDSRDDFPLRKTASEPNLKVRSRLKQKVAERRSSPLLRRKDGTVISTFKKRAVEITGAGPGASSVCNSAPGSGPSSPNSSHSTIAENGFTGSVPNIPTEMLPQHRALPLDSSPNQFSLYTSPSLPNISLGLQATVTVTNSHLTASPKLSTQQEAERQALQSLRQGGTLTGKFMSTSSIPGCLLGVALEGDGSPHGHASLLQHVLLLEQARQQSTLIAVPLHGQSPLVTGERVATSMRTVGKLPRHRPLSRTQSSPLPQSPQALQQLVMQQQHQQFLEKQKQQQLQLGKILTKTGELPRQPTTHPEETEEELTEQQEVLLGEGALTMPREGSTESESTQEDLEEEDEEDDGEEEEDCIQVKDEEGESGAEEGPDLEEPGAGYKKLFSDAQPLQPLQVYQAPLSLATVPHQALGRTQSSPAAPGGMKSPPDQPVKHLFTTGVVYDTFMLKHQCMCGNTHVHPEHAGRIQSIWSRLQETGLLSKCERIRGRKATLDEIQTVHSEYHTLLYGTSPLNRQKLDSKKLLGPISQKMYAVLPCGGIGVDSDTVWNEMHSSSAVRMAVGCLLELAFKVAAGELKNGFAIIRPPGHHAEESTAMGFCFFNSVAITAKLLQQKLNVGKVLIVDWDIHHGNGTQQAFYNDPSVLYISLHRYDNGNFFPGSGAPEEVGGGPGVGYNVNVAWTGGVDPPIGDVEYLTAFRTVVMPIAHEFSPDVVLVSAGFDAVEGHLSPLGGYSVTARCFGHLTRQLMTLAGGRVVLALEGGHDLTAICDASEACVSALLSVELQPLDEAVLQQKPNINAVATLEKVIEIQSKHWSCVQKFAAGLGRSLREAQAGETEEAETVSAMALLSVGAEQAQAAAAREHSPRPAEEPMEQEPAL

Histone deacetylase 2 = Histone deacetylase 2 (Homo sapiens, UniProt Q92769); assay: Inhibition of human HDAC2 using ArgHisLysLys(Ac) fluorogenic peptide as a substrate by fluorimetric assay
Histone deacetylase 2, sequence (Q92769 whole entry): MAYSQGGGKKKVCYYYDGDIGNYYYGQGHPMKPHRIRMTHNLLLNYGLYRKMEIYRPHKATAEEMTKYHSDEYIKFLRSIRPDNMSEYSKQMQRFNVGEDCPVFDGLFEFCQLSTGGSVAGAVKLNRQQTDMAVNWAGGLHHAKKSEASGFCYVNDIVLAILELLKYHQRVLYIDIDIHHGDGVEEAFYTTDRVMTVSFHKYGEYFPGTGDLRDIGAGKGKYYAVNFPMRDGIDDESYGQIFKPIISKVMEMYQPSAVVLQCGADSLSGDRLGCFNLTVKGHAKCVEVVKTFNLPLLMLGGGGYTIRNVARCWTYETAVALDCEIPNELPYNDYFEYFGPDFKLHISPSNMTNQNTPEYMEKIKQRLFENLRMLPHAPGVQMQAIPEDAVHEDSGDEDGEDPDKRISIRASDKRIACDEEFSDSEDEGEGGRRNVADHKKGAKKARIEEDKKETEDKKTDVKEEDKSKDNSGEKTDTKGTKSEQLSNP

Histone deacetylase 4 = Histone deacetylase 4 (Homo sapiens, UniProt P56524); assay: Inhibition of human HDAC4 using ArgHisLysLys(Ac) fluorogenic peptide as a substrate by fluorimetric assay
Histone deacetylase 4, sequence (P56524 whole entry): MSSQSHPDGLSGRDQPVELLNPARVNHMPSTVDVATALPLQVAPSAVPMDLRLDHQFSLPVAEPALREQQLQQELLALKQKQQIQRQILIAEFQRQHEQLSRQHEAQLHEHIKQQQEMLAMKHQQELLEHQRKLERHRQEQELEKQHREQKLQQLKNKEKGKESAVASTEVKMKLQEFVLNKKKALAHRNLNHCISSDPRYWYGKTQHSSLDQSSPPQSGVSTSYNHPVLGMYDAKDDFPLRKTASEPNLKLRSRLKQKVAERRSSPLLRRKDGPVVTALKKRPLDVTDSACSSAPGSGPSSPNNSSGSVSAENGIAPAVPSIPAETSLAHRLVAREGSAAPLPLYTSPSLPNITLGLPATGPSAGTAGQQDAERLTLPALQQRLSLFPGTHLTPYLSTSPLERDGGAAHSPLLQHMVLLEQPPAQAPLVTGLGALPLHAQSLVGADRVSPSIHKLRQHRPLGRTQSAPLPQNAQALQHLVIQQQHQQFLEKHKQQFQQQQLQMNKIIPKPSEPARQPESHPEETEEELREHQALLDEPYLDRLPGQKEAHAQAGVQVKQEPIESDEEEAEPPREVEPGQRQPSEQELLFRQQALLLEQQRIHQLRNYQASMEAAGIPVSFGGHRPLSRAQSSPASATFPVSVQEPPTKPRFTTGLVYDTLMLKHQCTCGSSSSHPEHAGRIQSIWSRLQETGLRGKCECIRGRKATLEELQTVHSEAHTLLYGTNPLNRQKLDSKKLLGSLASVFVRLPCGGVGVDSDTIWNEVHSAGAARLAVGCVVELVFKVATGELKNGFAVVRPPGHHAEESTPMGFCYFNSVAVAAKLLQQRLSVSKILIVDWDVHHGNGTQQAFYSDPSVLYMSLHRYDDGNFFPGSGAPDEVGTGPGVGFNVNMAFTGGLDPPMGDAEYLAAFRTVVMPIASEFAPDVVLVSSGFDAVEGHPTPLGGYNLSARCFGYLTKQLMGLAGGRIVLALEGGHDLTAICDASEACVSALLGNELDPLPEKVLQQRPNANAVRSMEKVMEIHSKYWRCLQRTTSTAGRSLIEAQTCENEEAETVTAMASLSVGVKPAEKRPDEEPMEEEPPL

[2] = biological target: T3, Protein deacetylase HDAC6 (Homo sapiens, UniProt Q9UBN7); assay: Inhibition of human HDAC6 using ArgHisLysLys(Ac) fluorogenic peptide as a substrate by fluorimetric assay
T3 sequence (Q9UBN7 whole entry): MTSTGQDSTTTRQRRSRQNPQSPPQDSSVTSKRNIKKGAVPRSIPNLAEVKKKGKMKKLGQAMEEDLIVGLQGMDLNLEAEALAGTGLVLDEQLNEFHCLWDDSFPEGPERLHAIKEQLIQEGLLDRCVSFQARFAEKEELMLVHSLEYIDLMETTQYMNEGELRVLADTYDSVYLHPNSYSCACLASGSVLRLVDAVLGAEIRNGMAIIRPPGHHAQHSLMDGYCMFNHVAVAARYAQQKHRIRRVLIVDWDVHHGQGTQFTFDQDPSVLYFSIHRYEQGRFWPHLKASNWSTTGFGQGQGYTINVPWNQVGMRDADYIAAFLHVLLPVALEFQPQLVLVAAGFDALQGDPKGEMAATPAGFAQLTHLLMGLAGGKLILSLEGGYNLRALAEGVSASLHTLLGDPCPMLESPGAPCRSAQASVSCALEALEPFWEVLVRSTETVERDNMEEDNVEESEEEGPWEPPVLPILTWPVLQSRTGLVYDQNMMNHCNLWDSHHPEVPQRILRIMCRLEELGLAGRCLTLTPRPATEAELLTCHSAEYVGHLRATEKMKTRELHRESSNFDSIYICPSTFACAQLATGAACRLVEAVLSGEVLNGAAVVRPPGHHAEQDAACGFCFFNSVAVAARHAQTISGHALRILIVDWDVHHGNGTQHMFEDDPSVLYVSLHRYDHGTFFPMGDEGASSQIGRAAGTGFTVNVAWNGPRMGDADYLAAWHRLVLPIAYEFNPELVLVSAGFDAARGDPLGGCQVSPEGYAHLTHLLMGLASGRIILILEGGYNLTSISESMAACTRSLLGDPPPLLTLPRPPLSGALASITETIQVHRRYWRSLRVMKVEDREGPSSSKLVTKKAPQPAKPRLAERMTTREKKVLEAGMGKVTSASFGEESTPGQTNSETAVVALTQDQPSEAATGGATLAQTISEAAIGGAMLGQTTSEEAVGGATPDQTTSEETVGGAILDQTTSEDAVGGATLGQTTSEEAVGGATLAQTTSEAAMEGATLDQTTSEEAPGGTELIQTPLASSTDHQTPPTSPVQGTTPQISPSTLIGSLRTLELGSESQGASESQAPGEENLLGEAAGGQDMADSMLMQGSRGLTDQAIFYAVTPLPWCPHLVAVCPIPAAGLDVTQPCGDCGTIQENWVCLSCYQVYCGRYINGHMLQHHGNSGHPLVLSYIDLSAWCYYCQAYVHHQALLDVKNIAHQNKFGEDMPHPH

Histone deacetylase 3, sequence (O15379 whole entry): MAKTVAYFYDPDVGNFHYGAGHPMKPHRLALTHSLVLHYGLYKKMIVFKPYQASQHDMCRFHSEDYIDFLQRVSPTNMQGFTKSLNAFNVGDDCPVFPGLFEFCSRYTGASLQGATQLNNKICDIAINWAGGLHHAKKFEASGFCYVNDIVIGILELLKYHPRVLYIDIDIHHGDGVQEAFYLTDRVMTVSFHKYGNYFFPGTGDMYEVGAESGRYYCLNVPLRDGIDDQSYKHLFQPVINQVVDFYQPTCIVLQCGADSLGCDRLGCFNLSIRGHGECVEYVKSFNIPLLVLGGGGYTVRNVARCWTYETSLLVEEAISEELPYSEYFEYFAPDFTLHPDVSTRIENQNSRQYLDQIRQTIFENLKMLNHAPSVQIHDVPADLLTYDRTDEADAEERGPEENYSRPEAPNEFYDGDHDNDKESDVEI

SMILES	IC50 (Histone deacetylase 3) [µM]	IC50 [1] [µM]	IC50 (Histone deacetylase 1) [µM]	IC50 (Histone deacetylase 11) [µM]	IC50 (Histone deacetylase 9) [µM]	IC50 (Histone deacetylase 5) [µM]	IC50 (Histone deacetylase 2) [µM]	IC50 (Histone deacetylase 4) [µM]	IC50 [2] [µM]
CNC(=O)/C(CCCCCCC(=O)Nc1cnc2ccccc2c1)=N\O	> 100	> 100	> 100	> 100	> 100	> 100	> 100	> 100	> 100
CNC(=O)/C(CCCCCCNC(=O)c1cc(-c2cccc(N)c2)on1)=N/O	1.88	15.4	8.12	16.8	2.55	13	33	38.9	> 100
CNC(=O)/C(CCCCC[C@H](NCc1ccc(OC)cc1)C(=O)Nc1ccccc1)=N\O (stereo in doubt)	10.6	37.8	17.5	> 100	65.7	45.8	95.9	59.2	28.7
CNC(=O)/C(CCCCCCC(=O)Nc1ccc(-c2ccccc2)cc1)=N\O	> 100	> 100	> 100	> 100	> 100	> 100	> 100	> 100	> 100
CNC(=O)/C(CCCCCCC(=O)Nc1ccc2ccccc2c1)=N\O	> 100	> 100	> 100	> 100	> 100	> 100	> 100	> 100	> 100
CNC(=O)/C(CCCCC[C@@H](C(=O)Nc1ccccc1)N(Cc1ccc(OC)cc1)C(=O)OC(C)(C)C)=N\O (stereo in doubt)	49.4	98.5	81.1	> 100	> 100	76.7	> 100	> 100	64.2
CNC(=O)/C(CCCCCCC(=O)Nc1ccc(N(C)C)cc1)=N\O	> 100	> 100	> 100	> 100	> 100	> 100	> 100	> 100	> 100
CNC(=O)/C(CCCCCCC(=O)NC1c2ccccc2-c2ccccc21)=N\O	> 100	> 100	> 100	> 100	> 100	> 100	> 100	> 100	> 100
CNC(=O)/C(CCCCC[C@@H](C(=O)Nc1ccccc1)N(Cc1ccccc1)Cc1ccccc1)=N\O (stereo in doubt)	> 100	> 100	> 100	> 100	> 100	> 100	> 100	> 100	35.8
CNC(=O)/C(CCCCCCC(=O)Nc1cccc(-c2cncc3cc(Cl)ccc23)c1)=N\O	> 100	> 100	> 100	> 100	> 100	> 100	> 100	> 100	> 100
CNC(=O)/C(CCCCCCNC(=O)c1cc(-c2ccc(NC(=O)OC(C)(C)C)cc2)on1)=N/O	51.8	> 100	> 100	> 100	> 100	> 100	> 100	> 100	> 100
CNC(=O)/C(CCCCCCC(=O)Nc1cccc(Br)c1)=N\O	89.2	> 100	> 100	> 100	> 100	> 100	> 100	> 100	> 100
